4 molecules from patent US8258151B2, “3-aminoimidazo [1,2-A] pyridine derivatives as SGLT inhibitors” (Merck Patent GmbH, priority 2006, dated 2012) can be followed below.

One assay deals with T1, SGLT1 (Homo sapiens, UniProt P13866).
T1 construct: expressed in transfected cells
T1 sequence (P13866 1-664): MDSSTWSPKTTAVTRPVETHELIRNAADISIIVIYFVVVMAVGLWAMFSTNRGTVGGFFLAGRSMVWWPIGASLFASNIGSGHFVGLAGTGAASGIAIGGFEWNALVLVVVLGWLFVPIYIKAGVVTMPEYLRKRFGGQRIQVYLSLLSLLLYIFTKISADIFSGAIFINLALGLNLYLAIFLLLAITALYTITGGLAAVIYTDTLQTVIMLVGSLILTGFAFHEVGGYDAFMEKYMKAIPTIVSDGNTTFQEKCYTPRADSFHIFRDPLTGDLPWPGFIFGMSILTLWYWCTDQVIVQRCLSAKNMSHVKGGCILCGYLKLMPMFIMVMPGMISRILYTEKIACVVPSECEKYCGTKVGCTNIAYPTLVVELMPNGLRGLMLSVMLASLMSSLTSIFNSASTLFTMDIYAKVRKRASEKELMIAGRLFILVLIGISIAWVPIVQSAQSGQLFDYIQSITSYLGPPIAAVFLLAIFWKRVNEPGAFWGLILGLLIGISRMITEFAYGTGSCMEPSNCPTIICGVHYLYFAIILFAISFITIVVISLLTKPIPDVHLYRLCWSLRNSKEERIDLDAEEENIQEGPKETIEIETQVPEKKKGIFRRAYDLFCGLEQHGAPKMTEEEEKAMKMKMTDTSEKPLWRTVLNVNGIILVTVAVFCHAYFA
Nature of the assay: SGLT1 activity measurement: 14C-AMG uptake in BHK cells transfected with SGLT1. Type of assay: cell-based. The settings on record: AMG 50 μM, 37° C., 90 min. In short, it runs like this: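 BHK21 cells stably transfected with human SLC5A1 were incubated with 14C-AMG (added solution at 50 μM) ± compound for 90 min at 37 °C. The buffer was 140 mM NaCl, HEPES/Tris, pH 7.4. Lysed-cell radioactivity was counted by scintillation, and non-specific uptake was measured in sodium-free sucrose buffer.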

Another assay concerns the target T2, SGLT2 (Homo sapiens, UniProt P31639).
T2 construct: expressed in transfected cells
T2 sequence (P31639 1-672): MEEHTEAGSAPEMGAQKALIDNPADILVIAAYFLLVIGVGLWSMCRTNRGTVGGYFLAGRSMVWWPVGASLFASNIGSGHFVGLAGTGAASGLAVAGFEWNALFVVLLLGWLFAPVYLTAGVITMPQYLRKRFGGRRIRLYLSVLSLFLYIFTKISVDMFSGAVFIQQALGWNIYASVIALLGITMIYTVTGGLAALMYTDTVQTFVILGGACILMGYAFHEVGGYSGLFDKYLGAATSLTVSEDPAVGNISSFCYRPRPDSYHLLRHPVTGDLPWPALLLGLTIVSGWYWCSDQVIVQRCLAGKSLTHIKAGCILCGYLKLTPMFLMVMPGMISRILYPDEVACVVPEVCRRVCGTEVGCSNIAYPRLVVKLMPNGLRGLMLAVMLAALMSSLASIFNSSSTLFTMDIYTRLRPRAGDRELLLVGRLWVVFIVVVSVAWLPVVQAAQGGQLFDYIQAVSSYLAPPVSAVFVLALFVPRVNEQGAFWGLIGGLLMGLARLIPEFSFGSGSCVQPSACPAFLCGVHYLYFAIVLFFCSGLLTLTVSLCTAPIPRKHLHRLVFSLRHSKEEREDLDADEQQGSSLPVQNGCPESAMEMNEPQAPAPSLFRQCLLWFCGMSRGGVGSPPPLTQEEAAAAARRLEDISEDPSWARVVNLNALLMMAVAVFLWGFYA
Nature of the assay: SGLT2 activity measurement: 14C-AMG uptake in BHK cells transfected with SGLT2. Type of assay: cell-based. The settings on record: AMG 2 mM, 37° C., 90 min. In short, it runs like this:
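BHK21 cells stably expressing human SGLT2 took up 14C-AMG (added as 2 mM solution) ± compound for 90 min at 37 °C in Na+-containing HEPES/Tris buffer, pH 7.4. Uptake was measured by scintillation counting after lysis. Non-specific uptake was defined in sodium-free sucrose buffer.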

A word on the IC50: it is the concentration at which inhibition is half-maximal. For the molecule `COc1cc(C)c(-c2nc3ccc(F)cn3c2Nc2c(C)cc([N+](=O)[O-])cc2C)c(OCC(N)=O)c1` [Compound A254, 2-[2-(Aminocarbonylmethoxy)-4-methoxy-6-methylphenyl]-3-(2,6-dimethyl-4-nitrophenyl-amino)-6-fluoroimidazo[1,2-a]pyridine], the IC50 is > 10 µM against SGLT1 and 0.01 to 1 µM against SGLT2.

Consider `CCc1cc(OC)cc(OCC(N)=O)c1-c1nc2c(F)cc(F)cn2c1Nc1c(C)cc(F)cc1C` [Compound A255, 2-[2-(Aminocarbonylmethoxy)-4-methoxy-6-ethylphenyl]-3-(2,6-dimethyl-4-fluorophenyl-amino)-6,8-difluoroimidazo[1,2-a]pyridine], for which the IC50 on SGLT1 was in the range of 1 to 10 µM; at SGLT2, 0.01 to 1 µM.

As to `COc1cc(C)c(-c2nc3ccc(F)cn3c2Nc2c(C)cccc2Cl)c(OCC(N)=O)c1` [Compound A256, 2-[2-(Aminocarbonylmethoxy)-4-methoxy-6-methylphenyl]-3-(2-chloro-6-methylphenyl-amino)-6-fluoroimidazo[1,2-a]pyridine], the IC50 against SGLT1 is 1 to 10 µM; at SGLT2, 0.01 to 1 µM.

With `CCc1cc(OC)cc(OCC(N)=O)c1-c1nc2ccc(F)cn2c1Nc1c(C)cccc1Cl` [Compound A257, 2-[2-(Aminocarbonylmethoxy)-4-methoxy-6-ethylphenyl]-3-(2-chloro-6-methylphenylamino)-6-fluoroimidazo[1,2-a]pyridine], the IC50 on SGLT1 was 1 to 10 µM; against SGLT2, 0.01 to 1 µM.
